Experimental data from patent US9738634B2, “Heterocyclic amide compound and herbicide” (SYNGENTA PARTICIPATIONS AG, priority 2013, dated 2017).

What was measured:
Assay type in all cases: in vivo
Settings in all cases: treatment dosage 320 g/ha
barnyard grass [1] = assay: Test Example 1: weedkilling efficacy, preemergent weed treatment in the submerged state; A: barnyard grass
Outline: (§1)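 Alluvial soil in Wagner pots flooded to 4 cm; barnyard grass, bulrush and oval-leafed pondweed seeds sown, then 2.5-leaf rice seedlings transplanted. Same day, emulsified compound diluted in water to set g/ha dosages and applied to water surface; greenhouse 25–30 °C, effect scored by criteria after 3 weeks.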

bulrush [2] = assay: Test Example 1: weedkilling efficacy, preemergent weed treatment in the submerged state; B: bulrush
Outline: as §1

oval-leafed pondweed [3] = assay: Test Example 1: weedkilling efficacy, preemergent weed treatment in the submerged state; C: oval-leafed pondweed
Outline: as §1

transplanted rice = assay: Test Example 1: preemergent weed treatment in the submerged state, effect on crop; a: transplanted rice
Outline: as §1

barnyard grass [4] = assay: Test Example 2: weedkilling efficacy, growth period weed treatment in the submerged state; A: barnyard grass
Outline: (§2)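 First, alluvial soil in pots is flooded to 4 cm and mixed seed is sown. Next, plants grow in a greenhouse at 25 to 30° C until the 1-2 leaf stage. Then diluted emulsion is applied onto the water surface at the given g/ha rate, and injury is assessed after 3 weeks.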

bulrush [5] = assay: Test Example 2: weedkilling efficacy, growth period weed treatment in the submerged state; B: bulrush
Outline: as §2

oval-leafed pondweed [6] = assay: Test Example 2: weedkilling efficacy, growth period weed treatment in the submerged state; C: oval-leafed pondweed
Outline: as §2

crabgrass [7] = assay: Test Example 3: weedkilling efficacy through soil treatment; D: crabgrass
Outline: (§3)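 Crop and weed responses were judged three weeks after a uniform surface spray of the water-diluted emulsion at the given g/ha rate. Seeds sat beneath about 1.5 cm of sterilized diluvial soil, and boxes stood in a greenhouse at 25 to 30° C.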

green foxtail [8] = assay: Test Example 3: weedkilling efficacy through soil treatment; E: green foxtail
Outline: as §3

barnyard grass [9] = assay: Test Example 3: weedkilling efficacy through soil treatment; F: barnyard grass
Outline: as §3

wild oat [10] = assay: Test Example 3: weedkilling efficacy through soil treatment; G: wild oat
Outline: as §3

black-grass [11] = assay: Test Example 3: weedkilling efficacy through soil treatment; H: black-grass
Outline: as §3

Italian ryegrass [12] = assay: Test Example 3: weedkilling efficacy through soil treatment; I: Italian ryegrass
Outline: as §3

common wind-grass [13] = assay: Test Example 3: weedkilling efficacy through soil treatment; J: common wind-grass
Outline: as §3

Indian mallow [14] = assay: Test Example 3: weedkilling efficacy through soil treatment; K: Indian mallow
Outline: as §3

redroot pigweed [15] = assay: Test Example 3: weedkilling efficacy through soil treatment; L: redroot pigweed
Outline: as §3

fig-leafed goosefoot [16] = assay: Test Example 3: weedkilling efficacy through soil treatment; M: fig-leafed goosefoot
Outline: as §3

chickweed [17] = assay: Test Example 3: weedkilling efficacy through soil treatment; N: chickweed
Outline: as §3

birds-eye speedwell [18] = assay: Test Example 3: weedkilling efficacy through soil treatment; p: birds-eye speedwell
Outline: as §3

directly sown rice [19] = assay: Test Example 3: soil treatment, effect on crop; b: directly sown rice
Outline: as §3

corn [20] = assay: Test Example 3: soil treatment, effect on crop; c: corn
Outline: as §3

soybean [21] = assay: Test Example 3: soil treatment, effect on crop; d: soybean
Outline: as §3

wheat [22] = assay: Test Example 3: soil treatment, effect on crop; e: wheat
Outline: as §3

beet [23] = assay: Test Example 3: soil treatment, effect on crop; f: beet
Outline: as §3

rapeseed [24] = assay: Test Example 3: soil treatment, effect on crop; g: rapeseed
Outline: as §3

crabgrass [25] = assay: Test Example 4: weedkilling efficacy by foliar treatment; D: crabgrass
Outline: (§4)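 Seeds are spot-sown into sterilized diluvial soil and covered with about 1.5 cm of soil. After 14 days' greenhouse growth at 25 to 30° C, plants are sprayed on stems and leaves with diluted emulsion at the stated g/ha rate, then scored at 3 weeks.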

green foxtail [26] = assay: Test Example 4: weedkilling efficacy by foliar treatment; E: green foxtail
Outline: as §4

barnyard grass [27] = assay: Test Example 4: weedkilling efficacy by foliar treatment; F: barnyard grass
Outline: as §4

wild oat [28] = assay: Test Example 4: weedkilling efficacy by foliar treatment; G: wild oat
Outline: as §4

black-grass [29] = assay: Test Example 4: weedkilling efficacy by foliar treatment; H: black-grass
Outline: as §4

Italian ryegrass [30] = assay: Test Example 4: weedkilling efficacy by foliar treatment; I: Italian ryegrass
Outline: as §4

common wind-grass [31] = assay: Test Example 4: weedkilling efficacy by foliar treatment; J: common wind-grass
Outline: as §4

Indian mallow [32] = assay: Test Example 4: weedkilling efficacy by foliar treatment; K: Indian mallow
Outline: as §4

redroot pigweed [33] = assay: Test Example 4: weedkilling efficacy by foliar treatment; L: redroot pigweed
Outline: as §4

fig-leafed goosefoot [34] = assay: Test Example 4: weedkilling efficacy by foliar treatment; M: fig-leafed goosefoot
Outline: as §4

chickweed [35] = assay: Test Example 4: weedkilling efficacy by foliar treatment; N: chickweed
Outline: as §4

catchweed = assay: Test Example 4: weedkilling efficacy by foliar treatment; O: catchweed
Outline: as §4

birds-eye speedwell [36] = assay: Test Example 4: weedkilling efficacy by foliar treatment; p: birds-eye speedwell
Outline: as §4

directly sown rice [37] = assay: Test Example 4: foliar treatment, effect on crop; b: directly sown rice
Outline: as §4

corn [38] = assay: Test Example 4: foliar treatment, effect on crop; c: corn
Outline: as §4

soybean [39] = assay: Test Example 4: foliar treatment, effect on crop; d: soybean
Outline: as §4

wheat [40] = assay: Test Example 4: foliar treatment, effect on crop; e: wheat
Outline: as §4

beet [41] = assay: Test Example 4: foliar treatment, effect on crop; f: beet
Outline: as §4

rapeseed [42] = assay: Test Example 4: foliar treatment, effect on crop; g: rapeseed
Outline: as §4

CC1=C(c2ccccc2)C(=O)N(C(C)(C)C(=O)Nc2cc(Cl)cc(C)n2)CO1 [B-2-42]
A (barnyard grass) weedkilling efficacy grade (barnyard grass [1]): 5 (weed kill ratio 90% or more, (practically complete withering))
B (bulrush) weedkilling efficacy grade (bulrush [2]): 5 (weed kill ratio 90% or more, (practically complete withering))
C (oval-leafed pondweed) weedkilling efficacy grade (oval-leafed pondweed [3]): 5 (weed kill ratio 90% or more, (practically complete withering))
a (transplanted rice) effect on crop grade (transplanted rice): 4 (weed kill ratio 70% or more, less than 90%)
A (barnyard grass) weedkilling efficacy grade (barnyard grass [4]): 5 (weed kill ratio 90% or more, (practically complete withering))
B (bulrush) weedkilling efficacy grade (bulrush [5]): 5 (weed kill ratio 90% or more, (practically complete withering))
C (oval-leafed pondweed) weedkilling efficacy grade (oval-leafed pondweed [6]): 5 (weed kill ratio 90% or more, (practically complete withering))
D (crabgrass) weedkilling efficacy grade (crabgrass [7]): 5 (weed kill ratio 90% or more, (practically complete withering))
E (green foxtail) weedkilling efficacy grade (green foxtail [8]): 5 (weed kill ratio 90% or more, (practically complete withering))
F (barnyard grass) weedkilling efficacy grade (barnyard grass [9]): 5 (weed kill ratio 90% or more, (practically complete withering))
G (wild oat) weedkilling efficacy grade (wild oat [10]): 5 (weed kill ratio 90% or more, (practically complete withering))
H (black-grass) weedkilling efficacy grade (black-grass [11]): 5 (weed kill ratio 90% or more, (practically complete withering))
I (Italian ryegrass) weedkilling efficacy grade (Italian ryegrass [12]): 5 (weed kill ratio 90% or more, (practically complete withering))
J (common wind-grass) weedkilling efficacy grade (common wind-grass [13]): 5 (weed kill ratio 90% or more, (practically complete withering))
K (Indian mallow) weedkilling efficacy grade (Indian mallow [14]): 4 (weed kill ratio 70% or more, less than 90%)
L (redroot pigweed) weedkilling efficacy grade (redroot pigweed [15]): 3 (weed kill ratio 40% or more, less than 70%)
M (fig-leafed goosefoot) weedkilling efficacy grade (fig-leafed goosefoot [16]): 4 (weed kill ratio 70% or more, less than 90%)
N (chickweed) weedkilling efficacy grade (chickweed [17]): 4 (weed kill ratio 70% or more, less than 90%)
P (birds-eye speedwell) weedkilling efficacy grade (birds-eye speedwell [18]): 5 (weed kill ratio 90% or more, (practically complete withering))
b (directly sown rice) effect on crop grade (directly sown rice [19]): 4 (weed kill ratio 70% or more, less than 90%)
c (corn) effect on crop grade (corn [20]): 1 (weed kill ratio 5% or more, less than 20%)
d (soybean) effect on crop grade (soybean [21]): 0 (weed kill ratio 5% or less (practically no effect))
e (wheat) effect on crop grade (wheat [22]): 0 (weed kill ratio 5% or less (practically no effect))
f (beet) effect on crop grade (beet [23]): 4 (weed kill ratio 70% or more, less than 90%)
g (rapeseed) effect on crop grade (rapeseed [24]): 4 (weed kill ratio 70% or more, less than 90%)
D (crabgrass) weedkilling efficacy grade (crabgrass [25]): 5 (weed kill ratio 90% or more, (practically complete withering))
E (green foxtail) weedkilling efficacy grade (green foxtail [26]): 5 (weed kill ratio 90% or more, (practically complete withering))
F (barnyard grass) weedkilling efficacy grade (barnyard grass [27]): 5 (weed kill ratio 90% or more, (practically complete withering))
G (wild oat) weedkilling efficacy grade (wild oat [28]): 3 (weed kill ratio 40% or more, less than 70%)
H (black-grass) weedkilling efficacy grade (black-grass [29]): 5 (weed kill ratio 90% or more, (practically complete withering))
I (Italian ryegrass) weedkilling efficacy grade (Italian ryegrass [30]): 5 (weed kill ratio 90% or more, (practically complete withering))
J (common wind-grass) weedkilling efficacy grade (common wind-grass [31]): 5 (weed kill ratio 90% or more, (practically complete withering))
K (Indian mallow) weedkilling efficacy grade (Indian mallow [32]): 5 (weed kill ratio 90% or more, (practically complete withering))
L (redroot pigweed) weedkilling efficacy grade (redroot pigweed [33]): 4 (weed kill ratio 70% or more, less than 90%)
M (fig-leafed goosefoot) weedkilling efficacy grade (fig-leafed goosefoot [34]): 4 (weed kill ratio 70% or more, less than 90%)
N (chickweed) weedkilling efficacy grade (chickweed [35]): 4 (weed kill ratio 70% or more, less than 90%)
O (catchweed) weedkilling efficacy grade (catchweed): 5 (weed kill ratio 90% or more, (practically complete withering))
P (birds-eye speedwell) weedkilling efficacy grade (birds-eye speedwell [36]): 4 (weed kill ratio 70% or more, less than 90%)
b (directly sown rice) effect on crop grade (directly sown rice [37]): 4 (weed kill ratio 70% or more, less than 90%)
c (corn) effect on crop grade (corn [38]): 3 (weed kill ratio 40% or more, less than 70%)
d (soybean) effect on crop grade (soybean [39]): 4 (weed kill ratio 70% or more, less than 90%)
e (wheat) effect on crop grade (wheat [40]): 0 (weed kill ratio 5% or less (practically no effect))
f (beet) effect on crop grade (beet [41]): 4 (weed kill ratio 70% or more, less than 90%)
g (rapeseed) effect on crop grade (rapeseed [42]): 4 (weed kill ratio 70% or more, less than 90%)
